From BindingDB's records for doi:10.1016/j.bmcl.2017.09.011 (Alma Mater Studiorum-University of Bologna, 2017) come the findings set out here.

The assay addresses DNA topoisomerase 2-alpha (Homo sapiens, UniProt P11388). In words: ChEBML_1696318. The protocol:
Inhibition of recombinant human topoisomerase-2alpha expressed in Saccharomyces cerevisiae JEL1 harboring topoisomerase1 deletion mutant assessed as reduction in enzyme-mediated [gamma32P]ATP hydrolysis using relaxed pBR322 DNA as substrate after 8 mins

Chain of DNA topoisomerase 2-alpha (P11388 whole entry): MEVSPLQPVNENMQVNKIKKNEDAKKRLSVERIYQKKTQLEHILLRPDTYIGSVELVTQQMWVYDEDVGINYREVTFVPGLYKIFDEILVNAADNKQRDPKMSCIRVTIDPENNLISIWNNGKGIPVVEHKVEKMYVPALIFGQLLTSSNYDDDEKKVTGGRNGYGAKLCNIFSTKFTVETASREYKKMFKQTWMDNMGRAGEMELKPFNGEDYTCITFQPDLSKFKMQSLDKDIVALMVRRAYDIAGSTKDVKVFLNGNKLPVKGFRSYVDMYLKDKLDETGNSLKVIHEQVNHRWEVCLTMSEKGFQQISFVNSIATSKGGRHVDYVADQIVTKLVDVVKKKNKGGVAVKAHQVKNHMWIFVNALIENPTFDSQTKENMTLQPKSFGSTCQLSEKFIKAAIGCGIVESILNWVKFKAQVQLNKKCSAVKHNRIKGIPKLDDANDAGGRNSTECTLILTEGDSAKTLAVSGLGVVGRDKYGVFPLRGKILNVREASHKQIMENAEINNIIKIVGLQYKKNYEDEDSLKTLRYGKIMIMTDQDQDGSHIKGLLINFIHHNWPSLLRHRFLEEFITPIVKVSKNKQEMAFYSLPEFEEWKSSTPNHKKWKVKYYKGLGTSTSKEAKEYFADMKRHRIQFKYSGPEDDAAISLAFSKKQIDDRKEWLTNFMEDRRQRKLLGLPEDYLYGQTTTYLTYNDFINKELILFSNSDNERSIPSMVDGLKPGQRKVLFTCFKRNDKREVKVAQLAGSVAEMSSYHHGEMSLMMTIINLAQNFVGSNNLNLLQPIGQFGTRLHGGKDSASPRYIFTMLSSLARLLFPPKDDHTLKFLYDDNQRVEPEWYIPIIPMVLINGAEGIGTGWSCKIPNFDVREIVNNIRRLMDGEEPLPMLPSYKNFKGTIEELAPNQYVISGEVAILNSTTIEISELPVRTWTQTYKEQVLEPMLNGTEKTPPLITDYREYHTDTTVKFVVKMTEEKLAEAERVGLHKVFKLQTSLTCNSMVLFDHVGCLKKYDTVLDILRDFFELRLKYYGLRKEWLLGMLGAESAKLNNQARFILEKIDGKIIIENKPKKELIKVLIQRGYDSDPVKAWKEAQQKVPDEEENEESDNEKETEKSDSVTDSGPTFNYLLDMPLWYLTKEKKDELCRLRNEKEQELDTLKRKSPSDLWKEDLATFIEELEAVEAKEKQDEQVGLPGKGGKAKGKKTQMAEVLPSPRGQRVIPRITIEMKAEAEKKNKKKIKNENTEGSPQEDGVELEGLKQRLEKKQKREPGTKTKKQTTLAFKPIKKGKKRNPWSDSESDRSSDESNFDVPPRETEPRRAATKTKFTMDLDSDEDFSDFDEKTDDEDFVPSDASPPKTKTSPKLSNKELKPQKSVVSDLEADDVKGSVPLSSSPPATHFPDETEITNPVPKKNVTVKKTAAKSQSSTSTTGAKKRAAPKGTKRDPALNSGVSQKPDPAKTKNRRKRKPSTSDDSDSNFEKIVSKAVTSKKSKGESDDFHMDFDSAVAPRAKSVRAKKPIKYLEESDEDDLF

`NCCCCNCC(O)COc1cc(O)c2c(=O)c3ccccc3oc2c1` (stereo unspecified) yielded an IC50 of 2.5 µM.
